Experimental data reported in patent US7579474B2, “Substituted piperidines as modulators of dopamine neurotransmission” (NSAB, Filial AF Neurosearch AB, Sverige, priority 2004, dated 2009).
Structures can show the parent of a compound that is named as a salt.

What was measured:
[1] = system: DOPAC (3,4-dihydroxyphenylacetic acid) in the rat striatum; experiment: Increase of DOPAC in the rat striatum after systemic administration (in vivo neurochemistry); settings: maximal effects limited to 350-400% of control, range covers 95% of fits, Inactive = inactive at 100 μmol/kg; for ED50: sc; for ED50 DOPAC*: s.c.
Excerpt: After the behavioural activity sessions, the rats were decapitated and their brains rapidly taken out and put on an ice-cold petri-dish. The limbic forebrain, the striatum, the frontal cortex and the remaining hemispheral parts of each rat were dissected and frozen. Each brain part was subsequently analyzed with respect to its content of monoamines and their metabolites.
The monoamine transmitter substances (NA (noradrenaline), DA (dopamine), 5-HT (serotonin)) as well as their amine (NM (normethanephrine), 3-MT (3-methoxytyramine)) and acid (DOPAC (3,4-dihydroxyphenylacetic acid), 5-HIAA (5-hydroxyindoleacetic acid), HVA (homovanillic acid)) metabolites are quantified in brain tissue homogenates by HPLC separations and electrochemical detection.
The analytical method is based on two chromatographic separations dedicated for amines or acids. Two chromatographic systems share a common auto injector with a 10-port valve and two sample loops for simultaneous injection on the two systems. Both systems are equipped with a reverse phase column (Luna C18(2), dp 3 μm, 50*2 mm i.d., Phenomenex) and electrochemical detection is accomplished at two potentials on glassy carbon electrodes (MF-1000, Bioanalytical Systems, Inc.). Via a T-connection the column effluent is passed to the detection cell or to waste. This is accomplished by two solenoid valves, which block either the waste or detector outlet. By not letting the chromatographic front reach the detector, better detection conditions are achieved. The aqueous mobile phase (0.4 ml/min) for the acid system contains Citric Acid 14 mM, Sodium Citrate 10 mM, MeOH 15% (v/v) and EDTA 0.1 mM. Detection potentials relative to Ag/AgCl reference is 0.45 and 0.60V. The aqueous ion pairing mobile phase (0.5 ml/min) for the amine system contains Citric Acid 5 mM, Sodium Citrate 10 mM, MeOH 9% (v/v), MeCN 10.5% (v/v), Decane Sulfonic Acid 0.45 mM, and EDTA 0.1 mM. Detection potentials relative to Ag/AgCl reference is 0.45 and 0.65V.
ED50 values for the increase of DOPAC in striatum are calculated by curve fitting. For most compounds, the evaluation is based on 20 animals over the dose range 0, 3.7, 11, 33 and 100 μmol/kg s.c. in one single experiment. The DOPAC levels are normalised to control and fitted by least square minimization to the function “End-(End-Control)/(1+(dose/ED50)^Slope)”. The four parameters are fitted with the restrictions: ED50>0, 0.5<Slope<3, 350<End<400 or End=200% of control (see table 1). To estimate confidence levels for the parameters, the fit is repeated 100 times with a random evenly distributed squared weight (0 to 1) for every measurement value. Presented ED50-ranges cover 95% of these values.

[2] = system: Locomotor activity in drug-naive rats; experiment: Locomotor activity in drug-naive rats; settings: for Locomotor activity 0-60 min: drug-naive rats, recorded for 60 minutes; for Locomotor activity 30-60 min: drug-naive habituated rats, recorded between 30 and 60 minutes
hERG ion channel = hERG ion channel (Homo sapiens, UniProt Q12809); experiment: Rb efflux through the hERG ion channel; assay type: cell-based; settings: Rb efflux method
Excerpt: The substances according to the present invention display a low potency at inhibiting the hERG channel, as measured by IC50 in a Rb+ efflux assay (Development and evaluation of high throughput functional assay methods for hERG potassium channel. Tang W, Kang 1, Wu X, Rampe D, Wang L, Shen H, Li Z, Dunnington D, Garyantes T. J Biomol Screen. 2001 October; 6(5):325-31), indicating a low risk for QT interval prolongation and arrhythmia in man.

Sequence of hERG ion channel (Q12809 whole entry): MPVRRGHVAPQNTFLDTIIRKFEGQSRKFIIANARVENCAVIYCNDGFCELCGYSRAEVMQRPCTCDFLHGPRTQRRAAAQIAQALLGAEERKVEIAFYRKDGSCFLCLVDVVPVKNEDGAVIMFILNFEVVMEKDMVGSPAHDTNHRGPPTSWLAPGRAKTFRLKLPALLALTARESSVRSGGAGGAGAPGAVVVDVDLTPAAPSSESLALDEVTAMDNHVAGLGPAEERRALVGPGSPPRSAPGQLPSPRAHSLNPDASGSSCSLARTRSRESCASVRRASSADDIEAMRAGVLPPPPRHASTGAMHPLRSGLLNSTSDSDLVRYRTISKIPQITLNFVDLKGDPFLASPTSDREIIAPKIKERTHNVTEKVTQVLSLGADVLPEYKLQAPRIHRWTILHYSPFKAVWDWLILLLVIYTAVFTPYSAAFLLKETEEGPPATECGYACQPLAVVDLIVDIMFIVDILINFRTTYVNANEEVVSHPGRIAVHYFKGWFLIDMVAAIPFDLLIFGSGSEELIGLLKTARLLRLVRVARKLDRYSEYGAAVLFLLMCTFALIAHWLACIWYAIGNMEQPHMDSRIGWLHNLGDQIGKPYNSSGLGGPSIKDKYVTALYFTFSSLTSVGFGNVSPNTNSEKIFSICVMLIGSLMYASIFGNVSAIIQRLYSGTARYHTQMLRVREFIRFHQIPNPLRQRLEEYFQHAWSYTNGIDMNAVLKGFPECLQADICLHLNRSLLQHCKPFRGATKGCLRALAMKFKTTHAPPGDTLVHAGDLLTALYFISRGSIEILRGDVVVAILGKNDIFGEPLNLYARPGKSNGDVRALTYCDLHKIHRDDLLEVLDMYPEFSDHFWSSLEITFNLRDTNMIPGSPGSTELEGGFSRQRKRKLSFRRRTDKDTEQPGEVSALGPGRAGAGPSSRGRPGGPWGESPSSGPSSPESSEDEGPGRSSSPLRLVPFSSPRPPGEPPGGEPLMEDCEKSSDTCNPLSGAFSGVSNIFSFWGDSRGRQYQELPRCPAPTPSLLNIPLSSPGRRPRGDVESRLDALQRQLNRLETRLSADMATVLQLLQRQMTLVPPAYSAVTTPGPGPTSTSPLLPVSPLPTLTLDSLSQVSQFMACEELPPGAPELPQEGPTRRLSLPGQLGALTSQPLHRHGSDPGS

Work on `CCCN1CCC(c2cccc(C(F)(F)F)c2)CC1` yielded an ED50 [1] of 84 µmol/kg.
For `CCCN1CCC(O)(c2cccc(C(F)(F)F)c2OC)CC1`, the “ED50 DOPAC*” value [1] was “Inactive***”.
In the case of `CCCCN1CCC(O)(c2cccc(S(C)(=O)=O)c2F)CC1`, the “ED50 DOPAC*” value [1] is reported as “Inactive***”.
In the case of `CCN1CCC(O)(c2cc(F)cc(C(F)(F)F)c2)CC1`, the “ED50 DOPAC*” value [1] is reported as “Inactive***” and the “ED50 DOPAC*” value ([1]; listed as comparative example 10) is reported as “inactive”.
With `COCCN1CCC(O)(c2cccc(Cl)c2Cl)CC1` the “Locomotor activity 0-60 min” value ([2]; 11 μmol/kg) was 7229 ± 769 counts/60 min ± SEM, the “Locomotor activity 0-60 min” value ([2]; 33 μmol/kg) was 7669 ± 1029 counts/60 min ± SEM and the “Locomotor activity 0-60 min” value ([2]; 100 μmol/kg) was 7542 ± 844 counts/60 min ± SEM.
Compound `CCCN1CCC(O)(c2cccc(Cl)c2Cl)CC1` (as salt: hydrochloric acid salt) has a melting point of 181 to 183 °C.
In the case of `COCCN1CCC(O)(c2cccc(Cl)c2Cl)CC1` (as salt: hydrochloric acid salt), the melting point is reported as 135 to 137 °C.
`CCCN1CCC(O)(c2cccc(C(F)(F)F)c2F)CC1` (as salt: hydrochloric acid salt) [Example 1, 4-[2-FLUORO-3-(TRIFLUOROMETHYL)PHENYL]-1-PROPYLPIPERIDIN-4-OL] gave a melting point of 175 to 177 °C.
Work on `COCCN1CCC(O)(c2ccc(Cl)c(C(F)(F)F)c2)CC1` (as salt: hydrochloric acid salt) [Example 2, 4-[4-CHLORO-3-(TRIFLUOROMETHYL)PHENYL]-1-(2-METHOXYETHYL)PIPERIDIN-4-OL] yielded a melting point of 181 to 183 °C.
Compound `CCN1CCC(O)(c2cccc(C(F)(F)F)c2F)CC1` (as salt: hydrochloric acid salt) [Example 3, 4-[2-FLUORO-3-(TRIFLUOROMETHYL)PHENYL]-1-ETHYLPIPERIDIN-4-OL] has a melting point of 177 to 180 °C.
For `COCCN1CCC(O)(c2cccc(C(F)(F)F)c2F)CC1` (as salt: hydrochloric acid salt) [Example 4, 4-[2-FLUORO-3-(TRIFLUOROMETHYL)PHENYL]-1-(2-M ETHOXYETHYL)PIPERIDIN-4-OL], the melting point was 159 to 160 °C.
`CCCCN1CCC(O)(c2cccc(C(F)(F)F)c2F)CC1` (as salt: hydrochloric acid salt) [Example 5, 4-[2-FLUORO-3-(TRIFLUOROMETHYL)PHENYL]-1-BUTYLPIPERIDIN-4-OL] gave a melting point of 138 °C.
`CCCN1CCC(O)(c2ccc(F)c(C(F)(F)F)c2)CC1` (as salt: hydrochloric acid salt) [Example 8, 4-[4-FLUORO-3-(TRIFLUOROMETHYL)PHENYL]-1-PROPYLPIPERIDIN-4-OL] gave a melting point of 179 to 181 °C.
Compound `CCCCN1CCC(O)(c2ccc(C)c(C(F)(F)F)c2)CC1` (as salt: hydrochloric acid salt) [Example 9, 1-BUTYL-4-[4-METHYL-3-(TRIFLUOROMETHYL)-PHENYL]PIPERIDIN-4-OL] has a melting point of 197 to 198 °C.
In the case of `CCCN1CCC(O)(c2cccc(S(C)(=O)=O)c2)CC1` [drawing 22], the “ED50 DOPAC*” value [1] is reported as “Inactive***”.
In the case of `CCCN1CCC(O)(c2cccc(C(F)(F)F)c2F)CC1` [drawing 25], the IC50 (hERG ion channel) is reported as 161 µM and the ED50 [1] is reported as 13 µmol/kg.
With `CCN1CCC(O)(c2cccc(C(F)(F)F)c2F)CC1` [drawing 26] the IC50 (hERG ion channel) was 424 µM and the ED50 [1] was 65 µmol/kg.
Work on `COCCN1CCC(O)(c2cccc(C(F)(F)F)c2F)CC1` [drawing 27] yielded an IC50 (hERG ion channel) of 350 µM and an ED50 [1] of 43 µmol/kg.
`CCCCN1CCC(O)(c2cccc(C(F)(F)F)c2F)CC1` [drawing 28] gave an IC50 (hERG ion channel) of 69 µM and an ED50 [1] of 13 µmol/kg.
`CCCN1CCC(O)(c2ccc(F)c(C(F)(F)F)c2)CC1` [drawing 29] gave an IC50 (hERG ion channel) of 60 µM and an ED50 [1] of 76 µmol/kg.
In the case of `COCCN1CCC(O)(c2ccc(Cl)c(C(F)(F)F)c2)CC1` [drawing 30], the IC50 (hERG ion channel) is reported as 68 µM and the ED50 [1] is reported as 32 µmol/kg.
For `CCCCN1CCC(O)(c2ccc(C)c(C(F)(F)F)c2)CC1` [drawing 31], the ED50 [1] was 56 µmol/kg.
In the case of `CCN1CCC(O)(c2cccc(C(F)(F)F)c2F)CC1` [drawing 32], the “Locomotor activity 0-60 min” value ([2]; 11 μmol/kg) is reported as 7481 ± 1266 counts/60 min ± SEM, the “Locomotor activity 0-60 min” value ([2]; 33 μmol/kg) is reported as 11085 ± 2020 counts/60 min ± SEM and the “Locomotor activity 0-60 min” value ([2]; 100 μmol/kg) is reported as 11288 ± 1339 counts/60 min ± SEM.
With `CCCCN1CCC(O)(c2ccc(C)c(C(F)(F)F)c2)CC1` [drawing 34] the “Locomotor activity 0-60 min” value ([2]; 11 μmol/kg) was 8188 ± 1055 counts/60 min ± SEM, the “Locomotor activity 0-60 min” value ([2]; 33 μmol/kg) was 2879 ± 503 counts/60 min ± SEM and the “Locomotor activity 0-60 min” value ([2]; 100 μmol/kg) was 2961 ± 928 counts/60 min ± SEM.
With `CCCN1CCC(O)(c2cccc(Cl)c2Cl)CC1` [drawing 35] the “Locomotor activity 0-60 min” value ([2]; 11 μmol/kg) was 8897 ± 801 counts/60 min ± SEM, the “Locomotor activity 0-60 min” value ([2]; 33 μmol/kg) was 9739 ± 2025 counts/60 min ± SEM and the “Locomotor activity 0-60 min” value ([2]; 100 μmol/kg) was 7499 ± 1620 counts/60 min ± SEM.
In the case of `COCCN1CCC(O)(c2ccc(Cl)c(C(F)(F)F)c2)CC1` [drawing 36], the “Locomotor activity 0-60 min” value ([2]; 11 μmol/kg) is reported as 7945 ± 1230 counts/60 min ± SEM, the “Locomotor activity 0-60 min” value ([2]; 33 μmol/kg) is reported as 5041 ± 2022 counts/60 min ± SEM and the “Locomotor activity 0-60 min” value ([2]; 100 μmol/kg) is reported as 4493 ± 1081 counts/60 min ± SEM.
For `CCCN1CCC(O)(c2cccc(C(F)(F)F)c2F)CC1` [drawing 37], the “Locomotor activity 0-60 min” value ([2]; 11 μmol/kg) was 11764 ± 3106 counts/60 min ± SEM, the “Locomotor activity 0-60 min” value ([2]; 33 μmol/kg) was 7506 ± 905 counts/60 min ± SEM and the “Locomotor activity 0-60 min” value ([2]; 100 μmol/kg) was 3698 ± 294 counts/60 min ± SEM.
In the case of `COCCN1CCC(O)(c2cccc(C(F)(F)F)c2F)CC1` [drawing 38], the “Locomotor activity 0-60 min” value ([2]; 11 μmol/kg) is reported as 6422 ± 1190 counts/60 min ± SEM, the “Locomotor activity 0-60 min” value ([2]; 33 μmol/kg) is reported as 6016 ± 1708 counts/60 min ± SEM and the “Locomotor activity 0-60 min” value ([2]; 100 μmol/kg) is reported as 4296 ± 847 counts/60 min ± SEM.
In the case of `CCCCN1CCC(O)(c2cccc(C(F)(F)F)c2F)CC1` [drawing 39], the “Locomotor activity 0-60 min” value ([2]; 11 μmol/kg) is reported as 7668 ± 1716 counts/60 min ± SEM, the “Locomotor activity 0-60 min” value ([2]; 33 μmol/kg) is reported as 3213 ± 825 counts/60 min ± SEM and the “Locomotor activity 0-60 min” value ([2]; 100 μmol/kg) is reported as 1630 ± 302 counts/60 min ± SEM.
For `CCCN1CCC(O)(c2ccc(F)c(C(F)(F)F)c2)CC1` [drawing 40], the “Locomotor activity 0-60 min” value ([2]; 11 μmol/kg) was 6114 ± 1032 counts/60 min ± SEM, the “Locomotor activity 0-60 min” value ([2]; 33 μmol/kg) was 5906 ± 1340 counts/60 min ± SEM and the “Locomotor activity 0-60 min” value ([2]; 100 μmol/kg) was 5546 ± 441 counts/60 min ± SEM.
For `CCCCN1CCC(O)(c2ccc(C)c(C(F)(F)F)c2)CC1` [drawing 41], the “Locomotor activity 30-60 min” value ([2]; 11 μmol/kg) was 2092 ± 1437 counts/30 min ± SEM, the “Locomotor activity 30-60 min” value ([2]; 33 μmol/kg) was 1337 ± 141 counts/30 min ± SEM and the “Locomotor activity 30-60 min” value ([2]; 100 μmol/kg) was 1365 ± 460 counts/30 min ± SEM.
In the case of `CCCN1CCC(O)(c2cccc(C(F)(F)F)c2F)CC1` [drawing 42], the “Locomotor activity 30-60 min” value ([2]; 11 μmol/kg) is reported as 3200 ± 1817 counts/30 min ± SEM, the “Locomotor activity 30-60 min” value ([2]; 33 μmol/kg) is reported as 1130 ± 344 (P = 0.06) counts/30 min ± SEM and the “Locomotor activity 30-60 min” value ([2]; 100 μmol/kg) is reported as 541 ± 145 counts/30 min ± SEM.
With `CCCN1CCC(O)(c2ccc(F)c(C(F)(F)F)c2)CC1` [drawing 43] the “Locomotor activity 30-60 min” value ([2]; 11 μmol/kg) was 213 ± 180 counts/30 min ± SEM, the “Locomotor activity 30-60 min” value ([2]; 33 μmol/kg) was 436 ± 246 counts/30 min ± SEM and the “Locomotor activity 30-60 min” value ([2]; 100 μmol/kg) was 258 ± 134 counts/30 min ± SEM.
With `CCN1CCC(c2ccc(F)c(C(F)(F)F)c2)CC1` [reference compound] the IC50 (hERG ion channel) was 23 µM.
